Our source for the Ki values is ChEMBL document CHEMBL3638962, “Heteroarylcarboxylic acid ester derivative” (2013).

The structures appear in SMILES notation. pKi: −log10 of the molar value.

For this assay, the target named is Enteropeptidase (Homo sapiens, UniProt P98073). The assay is described as follows: Inhibition Assay: Inhibition assay using human enteropeptidase.
Sequence of Enteropeptidase (P98073 2-784 limits assumed): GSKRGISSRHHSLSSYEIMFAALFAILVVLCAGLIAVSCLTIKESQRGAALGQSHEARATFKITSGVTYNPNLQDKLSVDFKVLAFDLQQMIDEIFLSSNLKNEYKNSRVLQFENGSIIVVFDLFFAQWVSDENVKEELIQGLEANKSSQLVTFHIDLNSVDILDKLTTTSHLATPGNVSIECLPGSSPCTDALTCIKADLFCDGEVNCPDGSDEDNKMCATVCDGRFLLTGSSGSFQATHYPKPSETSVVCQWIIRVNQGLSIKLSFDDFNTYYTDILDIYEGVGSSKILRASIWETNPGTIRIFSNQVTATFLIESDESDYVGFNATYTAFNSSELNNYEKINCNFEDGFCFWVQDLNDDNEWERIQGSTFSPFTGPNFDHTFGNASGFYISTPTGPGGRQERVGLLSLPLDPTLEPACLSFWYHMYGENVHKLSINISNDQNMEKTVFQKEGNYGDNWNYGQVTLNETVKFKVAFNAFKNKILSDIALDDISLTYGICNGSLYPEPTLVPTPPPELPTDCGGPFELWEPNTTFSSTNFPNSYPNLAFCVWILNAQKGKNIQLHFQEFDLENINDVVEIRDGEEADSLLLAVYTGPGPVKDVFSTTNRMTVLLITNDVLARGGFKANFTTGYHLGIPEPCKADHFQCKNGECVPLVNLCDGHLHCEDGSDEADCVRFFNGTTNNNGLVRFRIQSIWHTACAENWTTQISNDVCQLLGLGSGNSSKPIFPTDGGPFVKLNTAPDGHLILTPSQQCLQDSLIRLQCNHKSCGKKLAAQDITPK
Sequence of Enteropeptidase (P98073 785-1019 limits assumed): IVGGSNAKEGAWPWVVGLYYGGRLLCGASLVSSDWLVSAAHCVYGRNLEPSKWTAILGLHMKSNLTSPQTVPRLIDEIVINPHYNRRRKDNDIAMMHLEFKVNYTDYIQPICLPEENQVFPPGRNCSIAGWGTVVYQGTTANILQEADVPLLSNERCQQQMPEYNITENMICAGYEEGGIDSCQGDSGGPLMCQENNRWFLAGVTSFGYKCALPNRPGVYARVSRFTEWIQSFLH
In general, pKi refers to the Ki on a negative log10 scale, so that one unit is a factor of ten. Read a low pKi as a large Ki. Molecule `N=C(N)c1ccc(OC(=O)c2ccc(CCC(=O)N(CCC(=O)O)CC(=O)O)o2)cc1` had a negative-log Ki (pKi) of 9.22.

As for `CC(Cc1ncc(C(=O)Oc2ccc(C(=N)N)cc2F)s1)C(=O)N[C@@H](CC(=O)O)C(=O)O` (stereo partly drawn), the pKi is 8.43. On to `CC(Cc1ccc(C(=O)Oc2ccc(C(=N)N)cc2)o1)C(=O)O[C@H](CC(=O)O)C(=O)O` (stereo partly drawn), for which the pKi is 9.17.
